These results are taken from patent US20250099383A1, “COMPOSITIONS AND METHODS FOR DELIVERY OF NUCLEIC ACIDS” (Poseida Therapeutics, Inc., priority 2022, published 2025).

Series [1] is described as follows: Body weight change of mice after LNP administration. The settings on record: for Ave weight change (gram) n = 3: 24 hrs after 0.5 mg/kg LNP encapsulating firefly luciferase mRNA, adult female BALB/C mice; for % Body Weight Change 24 hr: LNP compositions of Table 25, 0.5 mg/kg fLuciferase mRNA i.v., 24 hr post-administration vs baseline. The series is classed as in vivo, BALB/C mice. As to the method:
The mice above were also monitored for changes in body weight after LNP delivery. Mice were manually weighed on a scale before LNP dosage and then weighed 24 hrs after administration of 0.5 mg/kg of LNP article encapsulating Cleancap firefly luciferase mRNA. The average of weight change n=3 is reported below.
In addition, the body weight of mice treated with the LNP compositions of Table 25 was assessed prior to intravenous administration and twenty-four hours post-administration and the body weights at baseline and post-treatment were compared. The average percentage of body weight change for each group of mice treated with each LNP composition of Table 25 is shown in Table 28. […]

Series [2] has as its system liver cells. As to the kind of experiment: In vivo LNP delivery of firefly luciferase mRNA to liver, bioluminescent imaging (BLI). Set-up: species or system BALB/C mice. The following applies: 0.5 mg/kg fLuciferase mRNA i.v., BLI at 4 hr; for Mean Liver Luciferase Flux (p/s): LNP compositions of Table 25, adult female BALB/C, n=3; for Ave flux (p/s) n = 3: adult female BALB/C mice, LNP as in Example 66. The method, then: Adult female BALB/C mice (n=3/group) were intravenously administered 0.5 mg/kg of 5′-CleanCap-fLuciferase mRNA (TriLink Biotech) formulated with LNP compositions as described in Example 66. One group of mice was treated with vehicle (PBS, Thermo Fisher Scientific, USA) as a negative control.
(§1) The location and extent of luciferase expression in treated and control mice were determined at 4 hr by bioluminescent imaging (BLI) of anesthetized mice using an IVIS Lumina in vivo imaging system (Perkin Elmer) according to the manufacturer's instructions. Briefly, mice were anesthetized using isoflurane in oxygen, and placed supine on a heated stage. Mice were then administered D-luciferin (Perkin-Elmer #122799) IP, and BLI was performed.
Adult female BALB/C mice (n=3/group) were intravenously administered 0.5 mg/kg of 5′-CleanCap-fLuciferase mRNA (TriLink Biotech) formulated with the LNP compositions shown in Table 25. One group of mice was treated with vehicle (PBS, Thermo Fisher Scientific, USA) as a negative control. […]

Series [3] in a line: Physical characteristics of LNPs (particle size, PDI). The series is classed as physicochemical. The settings on record: for PDI DNA / Particle Size (nm) DNA: LNP with Fluc DNA, compound/DOPE/Cholesterol/DMG-PEG2000 38/50/10.0/2.0, Lipid:DNA 45:1 (w/w); for PDI RNA / Particle Size (nm) RNA: LNP with Fluc mRNA, compound/DOPE/Cholesterol/DMG-PEG2000 41.44/45.85/10/2.7, Lipid:RNA 40:1 (w/w). As to the method: LNP compositions of the present disclosure comprising exemplary compounds of Formula (I) were prepared by combining various percentages of an exemplary compound of Formula (I), the phospholipid DOPE, the structural lipid cholesterol (Chol) and 1,2-dimyristoyl-sn-glycerol methoxypolyethylene glycol (DMG-PEG2000; Avanti Polar Lipids, Alabaster, Alabama, USA).
Individual 25 mg/ml stock solutions were prepared by solubilizing the lipids in 200-proof HPLC-grade ethanol and stock solutions were stored at −80° C. until formulated. At the time of formulation, the lipid stock solutions were briefly allowed to equilibrate to room temp and then placed on a hot plate maintained at a temperature range of 50-55° C.
A 1 mg/ml solution of the desired mRNA or DNA to be incorporated into the LNPs was added to 150 mM sodium acetate buffer (pH 5.2) to form a stock solution and kept on ice. The aqueous mRNA or DNA was then added to the lipids as shown in Table 4 or 5 and hand-mixed vigorously with a single channel pipettor.
The resultant mRNA or DNA LNP compositions were then transferred to a Repligen Float-A-Lyzer dialysis device-having a molecular weight cut off (MWCO) of 8-10 kDa (Spectrum Chemical Mfg. Corp, CA, USA) and processed by dialysis against phosphate buffered saline (PBS) (dialysate: dialysis buffer volume at least 1:200 v/v), pH 7.4 overnight at 4° C. (or alternatively room temperature for at least 4 hours), to remove the 25% ethanol and achieve a complete buffer exchange. In some experiments the LNPs were further concentrated by in an Amicon® Ultra-4 centrifugal filter unit, MWCO-30 kDa (Millipore Sigma, USA) spun at ˜4100 x g in an ultracentrifuge. The mRNA and DNA LNPs were then stored at 4° C. until further use.
LNP compositions of the present disclosure comprising mRNA or DNA encoding firefly luciferase (hereafter “Fluc”; TriLink) and COMPOUNDS 5-49 were prepared as described in Example 61 by combining one of COMPOUNDS 5-49, the phospholipid DOPE, the structural lipid cholesterol (Chol) and 1,2-dimyristoyl-sn-glycerol methoxypolyethylene glycol (DMG-PEG2000) in the percentages presented in Tables 6 and 7:
The physical characteristics of the resulting LNPs were analyzed.
A 1 mg/ml solution of the 5′-CleanCap--fLuciferase mRNA (TriLink Biotech) to be incorporated into the LNPs was added to 150 mM sodium acetate buffer (pH 5.2) to form a stock solution and kept on ice. The lipid phase was mixed with the aqueous mRNA phase inside a microfluidic chip using a NanoAssemblr® instrument (Precision Nanosystems, Vancouver, BC, Canada) according to the manufacturer's instructions to form LNP compositions comprising encapsulated mRNAs.
The average particle size diameter of the LNPs was approximately 75-150 nm.

Series [4] has as its system liver cells. Kind of series: In vivo LNP delivery of nanoplasmid CMV-firefly luciferase DNA to liver of juvenile mice, BLI. The settings on record: juvenile female BALB/C mice age 14 days; 0.25 mg/kg nanoplasmid CMV-firefly luciferase retroorbital i.v.; BLI at 4 hr. The method, then:
Juvenile female BALB/C mice of age 14 days (n=4/group) were retroorbitally intravenously administered 0.25 mg/kg of nanoplasmid CMV-firefly luciferase (Nature Technology Corp) formulated with LNP compositions as described in Example 66. One group of mice was treated with vehicle (PBS, Thermo Fisher Scientific, USA) as a negative control.
as §1

For the compound `CC(C)=CCC/C(C)=C/CCC1=CCC(C(=O)OCCOC(=O)CCN(CCCN2CCN(CCCN(CCC(=O)OCCOC(=O)C3CC=C(CC/C=C(\C)CCC=C(C)C)CC3)CCC(=O)OCCOC(=O)C3CC=C(CC/C=C(\C)CCC=C(C)C)CC3)CC2)CCC(=O)OCCOC(=O)C2CC=C(CC/C=C(\C)CCC=C(C)C)CC2)CC1` (stereo not drawn) [Compound 9, ((3,3′,3″,3′″-((piperazine-1,4-diylbis(propane-3,1-diyl))bis(azanetriyl))tetrakis(propanoyl))tetrakis(oxy))tetrakis(ethane-2,1-diyl)tetrakis(4-((E)-4,8-dimethylnona-3,7-dien-1-yl)cyclohex-3-enecarboxylate)], in series [1], the “Ave weight change (gram) n = 3” value is reported as −3.03 gram and the “% Body Weight Change 24 hr” value is “+1.4%”. In the series with liver cells [2], the “Mean Liver Luciferase Flux (p/s)” value was 4.62e10 p/s and the “Ave flux (p/s) n = 3” value was determined as 1.77E+10 p/s. In series [3], the “PDI DNA” value amounted to 0.123, the “Particle Size (nm) DNA” value came out at 330.9 nm, the “PDI RNA” value is reported as 0.129 and the “Particle Size (nm) RNA” value is 314.0 nm.

On to `CC(C)CCCC(C)CCCC1CCC(C(=O)OCCOC(=O)CCN(CCCN2CCN(CCCN(CCC(=O)OCCOC(=O)C3CCC(CCCC(C)CCCC(C)C)CC3)CCC(=O)OCCOC(=O)C3CCC(CCCC(C)CCCC(C)C)CC3)CC2)CCC(=O)OCCOC(=O)C2CCC(CCCC(C)CCCC(C)C)CC2)CC1` (stereo not drawn) [Compound 16, ((3,3′,3″,3″-((piperazine-1,4-diylbis(propane-3,1-diyl))bis(azanetriyl))tetrakis(propanoyl))tetrakis(oxy))tetrakis(ethane-2,1-diyl)tetrakis(4-(4,8-dimethylnonyl)cyclohexanecarboxylate)], for which, in the series with liver cells [4], the “Ave flux (p/s) n = 4” value is 8905000000 p/s. In addition, the “Ave weight change (gram) n = 3” value in series [1] is recorded as −3.60 gram. Further, the “Ave flux (p/s) n = 3” value with liver cells [2] is recorded as 3.67E+10 p/s. Moreover, in series [3], the “PDI DNA” value is given as 0.108, the “Particle Size (nm) DNA” value is given as 326.3 nm, the “PDI RNA” value is listed as 0.142 and the “Particle Size (nm) RNA” value came out at 354.0 nm.

On to `CC(C)CCCC(C)CCCC1CCC(C(=O)OCCOC(=O)CCN(CCCN(C)CCCN(CCC(=O)OCCOC(=O)C2CCC(CCCC(C)CCCC(C)C)CC2)CCC(=O)OCCOC(=O)C2CCC(CCCC(C)CCCC(C)C)CC2)CCC(=O)OCCOC(=O)C2CCC(CCCC(C)CCCC(C)C)CC2)CC1` (stereo not drawn) [Compound 17], for which the “Ave weight change (gram) n = 3” value in series [1] is −3.10 gram. For the same compound, the “Ave flux (p/s) n = 3” value in the series with liver cells [2] is given as 2.96E+10 p/s. Besides, in series [3], the “PDI DNA” value is given as 0.129, the “Particle Size (nm) DNA” value was 287.7 nm, the “PDI RNA” value came out at 0.145 and the “Particle Size (nm) RNA” value came to 293.3 nm.

With `CC(C)=CCCC1=CCC(C(=O)OCCOC(=O)CCN(CCCN(C)C)CCC(=O)OCCOC(=O)C2CC=C(CCC=C(C)C)CC2)CC1` (stereo not drawn) [Compound 19, ((3,3′-((3-(dimethylamino)propyl)azanediyl)bis(propanoyl))bis(oxy))bis(ethane-2,1-diyl)bis(4-(4-methylpent-3-en-1-yl)cyclohex-3-enecarboxylate)], the “Ave weight change (gram) n = 3” value in series [1] is listed as 0.70 gram. In the series with liver cells [2], the “Ave flux (p/s) n = 3” value came to 1.10E+06 p/s. For the same compound, in series [3], the “PDI DNA” value came to 0.131, the “Particle Size (nm) DNA” value came out at 213.9 nm, the “PDI RNA” value amounted to 0.133 and the “Particle Size (nm) RNA” value was found to be 220.1 nm.

In the case of `CC(C)=CCCC1=CCC(C(=O)OCCOC(=O)CCN(CCCN2CCN(CCCN(CCC(=O)OCCOC(=O)C3CC=C(CCC=C(C)C)CC3)CCC(=O)OCCOC(=O)C3CC=C(CCC=C(C)C)CC3)CC2)CCC(=O)OCCOC(=O)C2CC=C(CCC=C(C)C)CC2)CC1` (stereo not drawn) [Compound 22], in series [1], the “Ave weight change (gram) n = 3” value is given as −6.40 gram and the “% Body Weight Change 24 hr” value is recorded as “+1.2%”. For the same compound, in the series with liver cells [2], the “Mean Liver Luciferase Flux (p/s)” value turned out to be 1.84e10 p/s and the “Ave flux (p/s) n = 3” value was 9.27E+09 p/s. Also, in series [3], the “PDI DNA” value was 0.141, the “Particle Size (nm) DNA” value was determined as 255.5 nm, the “PDI RNA” value is given as 0.176 and the “Particle Size (nm) RNA” value is listed as 330.9 nm.

On to `CC(C)=CCCC1=CCC(C(=O)OCCOC(=O)CCN(CCCN(C)CCCN(CCC(=O)OCCOC(=O)C2CC=C(CCC=C(C)C)CC2)CCC(=O)OCCOC(=O)C2CC=C(CCC=C(C)C)CC2)CCC(=O)OCCOC(=O)C2CC=C(CCC=C(C)C)CC2)CC1` (stereo not drawn) [Compound 23], for which, in the series with liver cells [4], the “Ave flux (p/s) n = 4” value is reported as 3012500000 p/s. The “Ave weight change (gram) n = 3” value in series [1] was −5.97 gram. In the series on liver cells [2], the “Ave flux (p/s) n = 3” value is recorded as 6.24E+09 p/s. Also, in series [3], the “PDI DNA” value is 0.189, the “Particle Size (nm) DNA” value is 332.8 nm, the “PDI RNA” value came to 0.184 and the “Particle Size (nm) RNA” value came out at 434.4 nm.

Take `CC(C)CCCC1CCC(C(=O)OCCOC(=O)CCN(CCCN2CCN(CCCN(CCC(=O)OCCOC(=O)C3CCC(CCCC(C)C)CC3)CCC(=O)OCCOC(=O)C3CCC(CCCC(C)C)CC3)CC2)CCC(=O)OCCOC(=O)C2CCC(CCCC(C)C)CC2)CC1` (stereo not drawn) [Compound 29]: the “Ave flux (p/s) n = 4” value in the series with liver cells [4] is recorded as 9120000000 p/s. In series [1], the “Ave weight change (gram) n = 3” value is given as −6.07 gram and the “% Body Weight Change 24 hr” value was −2.4%. Besides, in the series on liver cells [2], the “Mean Liver Luciferase Flux (p/s)” value was determined as 3.02e10 p/s and the “Ave flux (p/s) n = 3” value amounted to 2.44E+10 p/s. In addition, in series [3], the “PDI DNA” value is given as 0.081, the “Particle Size (nm) DNA” value turned out to be 317.2 nm, the “PDI RNA” value was determined as 0.197 and the “Particle Size (nm) RNA” value came to 422.3 nm.

Turning to `CC(C)CCCC1CCC(C(=O)OCCOC(=O)CCN(CCC(=O)OCCOC(=O)C2CCC(CCCC(C)C)CC2)CCN(CCN(CCC(=O)OCCOC(=O)C2CCC(CCCC(C)C)CC2)CCC(=O)OCCOC(=O)C2CCC(CCCC(C)C)CC2)CCN(CCC(=O)OCCOC(=O)C2CCC(CCCC(C)C)CC2)CCC(=O)OCCOC(=O)C2CCC(CCCC(C)C)CC2)CC1` (stereo not drawn) [Compound 31], the “Ave weight change (gram) n = 3” value in series [1] is on record as −4.10 gram. For the same compound, the “Ave flux (p/s) n = 3” value in the series with liver cells [2] came out at 2.24E+09 p/s. In addition, in series [3], the “PDI DNA” value was determined as 0.063, the “Particle Size (nm) DNA” value was determined as 267.9 nm, the “PDI RNA” value is recorded as 0.145 and the “Particle Size (nm) RNA” value stood at 339.9 nm.
